Earlier results as cited in patent publication US20100278915A1, “COMPOSITIONS COMPRISING AN ANTIHISTAMINE, A[…] DE[…] EXTENDED RELEASE FORMULATIONS” (Atley Pharmaceuticals, Inc., priority 2009, published 2010).
Counter-ions that a name gives are not always drawn.

Assays:
[1] = within 24 hours of dosing
[2] = after a single oral dose
[3] = in vivo

CN[C@@H](C)[C@@H](O)c1ccccc1 [Pseudoephedrine, pseudoephedrine]
dose excreted unchanged in urine [1]: up to 90%

COc1ccc2c3c1O[C@H]1C(=O)CC[C@H]4[C@@H](C2)N(C)CC[C@]314 [Hydrocodone, hydrocodone]
share of total excretion in the first 24 hours [2]: About 70%

CN(C)CCC(c1ccc(Cl)cc1)c1ccccn1 (stereo not shown) [Chlorpheniramine, Chlorpheniramine maleate]
monodesmethyl and didesmethyl compounds excreted in the urine [3]: up to 26%
renal elimination, share of total excretion [3]: approximately 50%
